Key:
MATIN [1] = assay: Post-emergence herbicidal action against MATIN; type: in vivo, Matricaria inodora
Summary of the method: (§1)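 Sandy loam, greenhouse; treatment 2–3 weeks after sowing, one-leaf stage. Aqueous suspension or emulsion from WP/EC sprayed on foliage (600–800 l/ha, 0.2% wetting agent). Readout: visual % action, ~3 weeks.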

ABUTH [2] = assay: Post-emergence herbicidal action against ABUTH; type: in vivo, Abutilon theophrasti; settings: visual assessment about 3 weeks after treatment vs untreated controls
Summary of the method: as §1

VERPE [3] = assay: Post-emergence herbicidal action against VERPE; type: in vivo, Veronica persica; settings: 20 g/ha
Summary of the method: as §1

ALOMY [4] = assay: Pre-emergence herbicidal action against ALOMY; type: in vivo, Alopecurus myosuroides; settings: pre-emergence
Summary of the method: (§2)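 Seeds sown in sandy loam, soil-covered; compound sprayed on soil surface pre-emergence. Application: WP/EC, 600–800 l/ha, 0.2% wetting agent. Readout: visual % damage at 3 weeks.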

ABUTH [5] = assay: Pre-emergence herbicidal action against ABUTH; type: in vivo, Abutilon theophrasti
Summary of the method: as §2

AMARE [6] = assay: Pre-emergence herbicidal action against AMARE; type: in vivo, Amaranthus retroflexus
Summary of the method: as §2

DIGSA [7] = assay: Post-emergence herbicidal action against DIGSA; type: in vivo, Digitaria sanguinalis
Summary of the method: as §1

DIGSA [8] = assay: Pre-emergence herbicidal action against DIGSA; type: in vivo, Digitaria sanguinalis
Summary of the method: as §2

MATIN [9] = assay: Pre-emergence herbicidal action against MATIN; type: in vivo, Matricaria inodora
Summary of the method: as §2

AVEFA [10] = assay: Post-emergence herbicidal action against AVEFA; type: in vivo, Avena fatua; settings: 20 g/ha, visual assessment about 3 weeks after treatment, 100% = plants have died, 0% = like control plants
Summary of the method: as §1

VERPE [11] = assay: Pre-emergence herbicidal action against VERPE; type: in vivo, Veronica persica; settings: dosage 80 g/ha
Summary of the method: as §2

SETVI [12] = assay: Post-emergence herbicidal action against SETVI; type: in vivo, Setaria viridis
Summary of the method: as §1

SETVI [13] = assay: Pre-emergence herbicidal action against SETVI; type: in vivo, Setaria viridis; settings: dosage 80 g/ha
Summary of the method: as §2

PHBPU = assay: Post-emergence herbicidal action against PHBPU; type: in vivo, Pharbitis purpurea
Summary of the method: as §1

VIOTR [14] = assay: Pre-emergence herbicidal action against VIOTR; type: in vivo, Viola tricolor
Summary of the method: as §2

ECHCG [15] = assay: Pre-emergence herbicidal action against ECHCG; type: in vivo, Echinochloa crus-galli
Summary of the method: as §2

ECHCG [16] = assay: Post-emergence herbicidal action against ECHCG; type: in vivo, Echinochloa crus-galli
Summary of the method: as §1

AMARE [17] = assay: Post-emergence herbicidal action against AMARE; type: in vivo, Amaranthus retroflexus; settings: 20 g/ha, visual assessment about 3 weeks after treatment, 100% = plants have died, 0% = like control plants
Summary of the method: as §1

POLCO = assay: Pre-emergence herbicidal action against POLCO; type: in vivo, Polygonum convolvulus; settings: dosage 80 g/ha
Summary of the method: as §2

ALOMY [18] = assay: Post-emergence herbicidal action against ALOMY; type: in vivo, Alopecurus myosuroides; settings: dosage 20 g/ha, visual assessment about 3 weeks after treatment vs untreated controls
Summary of the method: as §1

VIOTR [19] = assay: Post-emergence herbicidal action against VIOTR; type: in vivo, Viola tricolor
Summary of the method: as §1

AVEFA [20] = assay: Pre-emergence herbicidal action against AVEFA; type: in vivo, Avena fatua; settings: Avena fatua, 504 h; 80 g/ha, pre-emergence
Summary of the method: as §2

[21] = 80 g/ha, scored visually after 3 weeks vs untreated controls (100% = plants have died, 0% = like control plants)
[22] = dosage 20 g/ha, scored visually after 3 weeks vs untreated controls, 100% = plants have died, 0% = like control plants
[23] = 20 g/ha, scored visually after 3 weeks vs untreated controls, 100% = plants have died, 0% = like control plants
[24] = Tripleurospermum inodorum, 504 h, dosage 20 g/ha

SMILES: Cc1c(C(=O)Nc2nnnn2C)ccc(C(F)F)c1C(=O)NCC(F)F [Example 1-49]
- Post-emergence action against MATIN in % (MATIN [1]; dosage 20 g/ha): 80%
- Post-emergence action against ABUTH in % (ABUTH [2]; dosage 5 g/ha): 90%
- Post-emergence action against ABUTH in % (ABUTH [2]; dosage 20 g/ha): 90%
- Post-emergence action against VERPE in % (VERPE [3]): 90%
- Pre-emergence action against ALOMY (herbicidal activity) (ALOMY [4]; [21]): 80%
- Pre-emergence action against ABUTH (herbicidal activity) (ABUTH [5]; [21]): 100%
- Pre-emergence action against ABUTH (herbicidal activity in percent) (ABUTH [5]; [22]): 80%
- Pre-emergence action against AMARE in % (AMARE [6]; [23]): 100%
- Pre-emergence action against AMARE in % (AMARE [6]; [21]): 100%
- Post-emergence action against DIGSA in % (DIGSA [7]; 5 g/ha): 80%
- Post-emergence action against DIGSA (DIGSA [7]; 20 g/ha): 90%
- Pre-emergence action against DIGSA in % (DIGSA [8]; dosage 20 g/ha): 90%
- Pre-emergence action against DIGSA in % (DIGSA [8]; dosage 80 g/ha): 100%
- Pre-emergence action against MATIN in % (MATIN [9]; dosage 20 g/ha): 90%
- Pre-emergence action against MATIN in % (MATIN [9]; dosage 80 g/ha): 100%
- Post-emergence action at 20 g/ha against AVEFA in % (AVEFA [10]): 80%
- Pre-emergence action against VERPE in % (VERPE [11]): 100%
- Post-emergence action against SETVI in % (SETVI [12]; dosage 5 g/ha): 90%
- Post-emergence action against SETVI in % (SETVI [12]; dosage 20 g/ha): 100%
- Pre-emergence action against SETVI in % (SETVI [13]): 80%
- Post-emergence action against PHBPU in % (PHBPU; dosage 5 g/ha): 80%
- Post-emergence action against PHBPU in % (PHBPU; dosage 20 g/ha): 90%
- Pre-emergence action against VIOTR in % (VIOTR [14]; dosage 80 g/ha): 100%
- Pre-emergence action against ECHCG in % (ECHCG [15]; 80 g/ha): 80%
- Post-emergence action against ECHCG in % (ECHCG [16]; dosage 5 g/ha): 80%
- Post-emergence action against ECHCG in % (ECHCG [16]; dosage 20 g/ha): 90%
- Post-emergence action at 20 g/ha against AMARE in % (AMARE [17]): 90%
- Pre-emergence action against POLCO in % (POLCO): 90%

SMILES: CCn1nnnc1NC(=O)c1ccc(C(F)(F)F)c(C(=O)NC2CC2)c1SC [Example 2-83]
- pest or weed control at 5 g/ha (MATIN [1]; Tripleurospermum inodorum, 504 h, dosage 5 g/ha): 80%
- pest or weed control at 20 g/ha (MATIN [1]; [24]): 100%
- pest or weed control at 5 g/ha (ABUTH [2]; Abutilon theophrasti, 504 h, dosage 5 g/ha): 90%
- pest or weed control at 20 g/ha (ABUTH [2]; Abutilon theophrasti, 504 h, dosage 20 g/ha): 90%
- pest or weed control at 20 g/ha (VERPE [3]; Veronica persica, 504 h): 80%
- pest or weed control at 80 g/ha (ALOMY [4]; Alopecurus myosuroides, 504 h, 80 g/ha, scored visually after 3 weeks vs untreated controls (100% = plants have died, 0% = like control plants)): 90%
- pest or weed control at 20 g/ha (ALOMY [4]; Alopecurus myosuroides, 504 h, 20 g/ha, scored visually after 3 weeks, 100% = plants have died, 0% = like control plants): 90%
- pest or weed control at 80 g/ha (ABUTH [5]; Abutilon theophrasti, 504 h, 80 g/ha, scored visually after 3 weeks vs untreated controls (100% = plants have died, 0% = like control plants)): 100%
- pest or weed control at 20 g/ha (ABUTH [5]; Abutilon theophrasti, 504 h, dosage 20 g/ha, scored visually after 3 weeks vs untreated controls, 100% = plants have died, 0% = like control plants, read-out: Pre-emergence action against ABUTH (herbicidal activity in percent)): 100%
- pest or weed control at 20 g/ha (AMARE [6]; Amaranthus retroflexus, 504 h, 20 g/ha, scored visually after 3 weeks vs untreated controls, 100% = plants have died, 0% = like control plants): 100%
- pest or weed control at 80 g/ha (AMARE [6]; Amaranthus retroflexus, 504 h, 80 g/ha, scored visually after 3 weeks vs untreated controls, 100% = plants have died, 0% = like control plants): 100%
- pest or weed control at 20 g/ha (ALOMY [18]; Alopecurus myosuroides, 504 h): 100%
- pest or weed control at 5 g/ha (VIOTR [19]; Viola tricolor, 504 h, 5 g/ha): 80%
- pest or weed control at 20 g/ha (VIOTR [19]; Viola tricolor, 504 h, 20 g/ha): 80%
- pest or weed control at 20 g/ha (MATIN [9]; [24]): 100%
- pest or weed control at 80 g/ha (MATIN [9]; Tripleurospermum inodorum, 504 h, dosage 80 g/ha): 100%
- pest or weed control at 20 g/ha (AVEFA [10]; Avena fatua, 504 h): 90%
- pest or weed control at 20 g/ha (SETVI [12]; Setaria viridis, 504 h, dosage 20 g/ha): 100%
- pest or weed control at 80 g/ha (SETVI [13]; Setaria viridis, 504 h): 100%
- pest or weed control at 20 g/ha (PHBPU; Ipomoea purpurea, 504 h, dosage 20 g/ha): 80%
- pest or weed control at 80 g/ha (VIOTR [14]; Viola tricolor, 504 h, dosage 80 g/ha): 100%
- pest or weed control at 80 g/ha (ECHCG [15]; Echinochloa crus-galli, 504 h, 80 g/ha): 90%
- pest or weed control at 20 g/ha (ECHCG [16]; Echinochloa crus-galli, 504 h, dosage 20 g/ha): 90%
- pest or weed control at 20 g/ha (AMARE [17]; Amaranthus retroflexus, 504 h): 100%
- pest or weed control at 80 g/ha (POLCO; Fallopia convolvulus, 504 h): 90%
- pest or weed control at 80 g/ha (AVEFA [20]): 90%

SMILES: CCn1nnnc1NC(=O)c1ccc(C(F)(F)F)c(C(=O)NC(C)C2CC2)c1SC (centres unmarked) [Example 2-350]
- Post-emergence action against MATIN in % (MATIN [1]; dosage 5 g/ha): 80%
- Post-emergence action against MATIN in % (MATIN [1]; dosage 20 g/ha): 90%
- Post-emergence action against ABUTH in % (ABUTH [2]; dosage 20 g/ha): 80%
- Post-emergence action against VERPE in % (VERPE [3]): 80%
- Pre-emergence action against ABUTH (herbicidal activity) (ABUTH [5]; [21]): 100%
- Pre-emergence action against ABUTH (herbicidal activity in percent) (ABUTH [5]; [22]): 100%
- Pre-emergence action against AMARE in % (AMARE [6]; [23]): 100%
- Pre-emergence action against AMARE in % (AMARE [6]; [21]): 100%
- Post-emergence action against ALOMY in % (ALOMY [18]): 80%
- Post-emergence action against VIOTR in % (VIOTR [19]; 5 g/ha): 100%
- Post-emergence action against VIOTR in % (VIOTR [19]; 20 g/ha): 100%
- Pre-emergence action against MATIN in % (MATIN [9]; dosage 20 g/ha): 100%
- Pre-emergence action against MATIN in % (MATIN [9]; dosage 80 g/ha): 100%
- Post-emergence action at 20 g/ha against AVEFA in % (AVEFA [10]): 90%
- Pre-emergence action against VERPE in % (VERPE [11]): 100%
- Post-emergence action against SETVI in % (SETVI [12]; dosage 20 g/ha): 100%
- Pre-emergence action against SETVI in % (SETVI [13]): 100%
- Post-emergence action against PHBPU in % (PHBPU; dosage 5 g/ha): 80%
- Post-emergence action against PHBPU in % (PHBPU; dosage 20 g/ha): 80%
- Pre-emergence action against VIOTR in % (VIOTR [14]; dosage 20 g/ha): 100%
- Pre-emergence action against VIOTR in % (VIOTR [14]; dosage 80 g/ha): 100%
- Pre-emergence action against ECHCG in % (ECHCG [15]; 20 g/ha): 80%
- Pre-emergence action against ECHCG in % (ECHCG [15]; 80 g/ha): 100%
- Post-emergence action against ECHCG in % (ECHCG [16]; dosage 20 g/ha): 100%
- Post-emergence action at 20 g/ha against AMARE in % (AMARE [17]): 100%
- Pre-emergence action against POLCO in % (POLCO): 100%

— patent US12655116B2, “Substituted isophthalic acid diamides” (Bayer Aktiengesellschaft, priority 2020, dated 2026)
